Measured values as given in patent US4663456A, “2-(substituted piperazinylalkyl)β-carbolines useful in treatment of psychological disorders” (American Home Products Corporation, priority 1985, dated 1987).

What was measured:
[1] = tested on: conditioned avoidance responding in trained male CD rats; experiment: conditioned avoidance lever response test (block of avoidance responding, i.p.); assay type: in vivo, male CD rats (Charles River); details: Rattus norvegicus, ip, from dose-effect regression line, read-out: AB50 (50% block in avoidance responding)
From the text: The antipsychotic properties of the compounds of this invention were established by standard pharmacologically accepted procedures involving conditioned avoidance studies in which trained male CD rats (Charles River), 400-450 gm body weight are exposed to a fifteen second warning tone (conditioned stimulus) continued for an additional fifteen seconds accompanied by electric shock. The rat can avoid the electric shock by depression of a response lever (lever-response). A response during the initial warning tone is considered an avoidance response. The avoidance response is determined and expressed as a percentage of total trials from an appropriate number of trials and a 50% block in avoidance responding (AB50) is obtained from a dose-effect regression line. All the data is based upon (mg/kg) dosing of the animals.

[2] = target: T1, limbic D-2 (Rattus norvegicus, UniProt P61169); experiment: limbic D-2 binding (3H-spiroperidol, homogenized limbic brain tissue)
T1 construct: from tissue; host or cells: homogenized limbic brain tissue
T1 sequence (P61169 whole entry): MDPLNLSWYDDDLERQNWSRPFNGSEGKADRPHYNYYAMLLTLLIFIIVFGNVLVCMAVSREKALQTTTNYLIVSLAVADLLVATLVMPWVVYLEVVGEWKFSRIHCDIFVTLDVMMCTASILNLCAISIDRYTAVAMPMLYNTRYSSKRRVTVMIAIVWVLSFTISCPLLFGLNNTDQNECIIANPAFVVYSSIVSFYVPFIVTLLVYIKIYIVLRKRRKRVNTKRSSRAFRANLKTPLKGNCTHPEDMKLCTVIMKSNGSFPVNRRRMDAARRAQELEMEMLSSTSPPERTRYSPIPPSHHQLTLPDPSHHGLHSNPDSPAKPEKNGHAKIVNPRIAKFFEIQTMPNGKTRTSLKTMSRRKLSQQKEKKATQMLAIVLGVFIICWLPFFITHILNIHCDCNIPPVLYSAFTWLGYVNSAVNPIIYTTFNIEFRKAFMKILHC
Procedure: Binding in the presence of the test compound is expressed as a percent of specific binding (total binding less binding in the presence of 1 μM (+)butaclamol). An inhibition constant (Ki) is calculated for each test compound to catagorize its limbic D-2 binding potential. The larger the number, the less potential for dopamine receptor binding and attendant side effects from administration of the antipsychotic agent.

| SMILES | ED50 [1] | Ki ([2]; bound) | percent, limbic D-2 binding ([2]; concentration not given) |
| --- | --- | --- | --- |
| c1cnc(N2CCN(CCCN3CCc4c([nH]c5ccccc45)C3)CC2)nc1 [Example 1, 2,3,4,9-Tetrahydro-2-[3-[4-(2-pyrimidinyl)-1-piperazinyl]propyl]-1H-pyrido[3,4-b]indole] | 34.7 mg/kg | – | – |
| C[C@@H]1CN(CCCN2CCc3c([nH]c4ccccc34)C2)C[C@@H](C)N1 (relative stereo) [Example 3, 2-[3-(trans-3,5-Dimethyl-1-piperazinyl)propyl]-2,3,4,9-tetrahydro-1H-pyrido[3,4-b]indole] | – | > 5 µM | 38% |
